Experimental data published in publication PMC9481151, “Discovery of new symmetrical and asymmetrical nitrile-containing 1,4-dihydropyridine derivatives as dual kinases and P-glycoprotein inhibitors: synthesis, in vitro assays, and in silico studies” (Journal of Enzyme Inhibition and Medicinal Chemistry, 2022).

Assays:
BTK = BTK (Homo sapiens, UniProt Q06187); test: BTK inhibitory activity; assay type: biochemical; settings: (IC50 lapatinib/IC50 Compound)*100
HER-2 = HER-2 (Homo sapiens, UniProt P04626); test: HER-2 kinase inhibitory activity; assay type: biochemical; settings: (IC50 lapatinib/IC50 Compound)*100
SK-MEL-2 = test: NCI single dose (10 µM) SRB screen; assay type: cell-based, human; settings: melanoma, 48 h
NCI-H322M = test: NCI single dose (10 µM) SRB screen; assay type: cell-based; settings: non-small cell lung cancer, 48 h
DU-145 = test: NCI single dose (10 µM) SRB screen; assay type: cell-based, human; settings: prostate cancer, 48 h
OVCAR-3 = test: NCI single dose (10 µM) SRB screen; assay type: cell-based, human; settings: ovarian cancer, 48 h
RXF 393 = test: NCI single dose (10 µM) SRB screen; assay type: cell-based, human; settings: renal cancer, 48 h
M14 = test: NCI single dose (10 µM) SRB screen; assay type: cell-based, human; settings: melanoma, 48 h
ACHN = test: NCI single dose (10 µM) SRB screen; assay type: cell-based, human; settings: renal cancer, 48 h
NCI-H522 = test: NCI single dose (10 µM) SRB screen; assay type: cell-based, human; settings: non-small cell lung cancer, 48 h
MDA-MB-435 = test: NCI single dose (10 µM) SRB screen; assay type: cell-based, human; settings: melanoma, 48 h
MALME-3M = test: NCI single dose (10 µM) SRB screen; assay type: cell-based, human; settings: melanoma, 48 h
NCI 60 cancer cell lines = test: NCI single dose (10 µM) SRB screen, mean over panel; assay type: cell-based, human; settings: mean over 60 cell lines, 48 h
NCI-H460 = test: NCI single dose (10 µM) SRB screen; assay type: cell-based, human; settings: non-small cell lung cancer, 48 h
T-47D = test: NCI single dose (10 µM) SRB screen; assay type: cell-based, human; settings: breast cancer, 48 h
SW-620 = test: NCI single dose (10 µM) SRB screen; assay type: cell-based, human; settings: colon cancer, 48 h
A549/ATCC = test: NCI single dose (10 µM) SRB screen; assay type: cell-based, human; settings: non-small cell lung cancer, 48 h
CAKI-1 = test: NCI single dose (10 µM) SRB screen; assay type: cell-based, human; settings: renal cancer, 48 h
HT29 = test: NCI single dose (10 µM) SRB screen; assay type: cell-based, human; settings: colon cancer, 48 h
UACC-62 = test: NCI single dose (10 µM) SRB screen; assay type: cell-based, human; settings: melanoma, 48 h
Candida albicans = test: Agar well diffusion method; settings: relative to clotrimazole
SR = test: NCI single dose (10 µM) SRB screen; assay type: cell-based, human; settings: leukaemia, 48 h
786-0 = test: NCI single dose (10 µM) SRB screen; assay type: cell-based, human; settings: renal cancer, 48 h
UACC-257 = test: NCI single dose (10 µM) SRB screen; assay type: cell-based, human; settings: melanoma, 48 h
A498 = test: NCI single dose (10 µM) SRB screen; assay type: cell-based, human; settings: renal cancer, 48 h
NCI-H226 = test: NCI single dose (10 µM) SRB screen; assay type: cell-based, human; settings: non-small cell lung cancer, 48 h
HCT-15 = test: NCI single dose (10 µM) SRB screen; assay type: cell-based, human; settings: colon cancer, 48 h
HOP-92 = test: NCI single dose (10 µM) SRB screen; assay type: cell-based, human; settings: non-small cell lung cancer, 48 h
HCT-116 = test: NCI single dose (10 µM) SRB screen; assay type: cell-based, human; settings: colon cancer, 48 h
SNB-19 = test: NCI single dose (10 µM) SRB screen; assay type: cell-based, human; settings: CNS cancer, 48 h
NCI/ADR-RES = test: NCI single dose (10 µM) SRB screen; assay type: cell-based, human; settings: ovarian cancer, 48 h
Pseudomonas aeruginosa = test: Agar well diffusion method; settings: relative to ciprofloxacin
BT-549 = test: NCI single dose (10 µM) SRB screen; assay type: cell-based, human; settings: breast cancer, 48 h
K-562 = test: NCI single dose (10 µM) SRB screen; assay type: cell-based, human; settings: leukaemia, 48 h
PC-3 = test: NCI single dose (10 µM) SRB screen; assay type: cell-based, human; settings: prostate cancer, 48 h
Bacillus subtilis = test: Agar well diffusion method; settings: relative to ciprofloxacin
KM12 = test: NCI single dose (10 µM) SRB screen; assay type: cell-based, human; settings: colon cancer, 48 h
HS578T = test: NCI single dose (10 µM) SRB screen; assay type: cell-based, human; settings: breast cancer, 48 h
MCF7 = test: NCI single dose (10 µM) SRB screen; assay type: cell-based, human; settings: breast cancer, 48 h
OVCAR-5 = test: NCI single dose (10 µM) SRB screen; assay type: cell-based, human; settings: ovarian cancer, 48 h
SK-OV-3 = test: NCI single dose (10 µM) SRB screen; assay type: cell-based, human; settings: ovarian cancer, 48 h
OVCAR-4 = test: NCI single dose (10 µM) SRB screen; assay type: cell-based, human; settings: ovarian cancer, 48 h
MDA-MB-231 = test: NCI single dose (10 µM) SRB screen; assay type: cell-based, human; settings: breast cancer, 48 h
NCI-H23 = test: NCI single dose (10 µM) SRB screen; assay type: cell-based, human; settings: non-small cell lung cancer, 48 h
SF-539 = test: NCI single dose (10 µM) SRB screen; assay type: cell-based, human; settings: CNS cancer, 48 h
COLO 205 = test: NCI single dose (10 µM) SRB screen; assay type: cell-based, human; settings: colon cancer, 48 h
HL-60(TB) = test: NCI single dose (10 µM) SRB screen; assay type: cell-based, human; settings: leukaemia, 48 h
UO-31 = test: NCI single dose (10 µM) SRB screen; assay type: cell-based, human; settings: renal cancer, 48 h
CCRF-CEM = test: NCI single dose (10 µM) SRB screen; assay type: cell-based, human; settings: leukaemia, 48 h
SN12C = test: NCI single dose (10 µM) SRB screen; assay type: cell-based, human; settings: renal cancer, 48 h
U251 = test: NCI single dose (10 µM) SRB screen; assay type: cell-based, human; settings: CNS cancer, 48 h
EKVX = test: NCI single dose (10 µM) SRB screen; assay type: cell-based, human; settings: non-small cell lung cancer, 48 h
MOLT-4 = test: NCI single dose (10 µM) SRB screen; assay type: cell-based, human; settings: leukaemia, 48 h
RPMI-8226 = test: NCI single dose (10 µM) SRB screen; assay type: cell-based, human; settings: leukaemia, 48 h
OVCAR-8 = test: NCI single dose (10 µM) SRB screen; assay type: cell-based, human; settings: ovarian cancer, 48 h
SF-268 = test: NCI single dose (10 µM) SRB screen; assay type: cell-based, human; settings: CNS cancer, 48 h
Aspergillus flavus = test: Agar well diffusion method; settings: relative to clotrimazole
Escherichia coli = test: Agar well diffusion method; settings: relative to ciprofloxacin
HOP-62 = test: NCI single dose (10 µM) SRB screen; assay type: cell-based, human; settings: non-small cell lung cancer, 48 h
HCC-2998 = test: NCI single dose (10 µM) SRB screen; assay type: cell-based, human; settings: colon cancer, 48 h
TK-10 = test: NCI single dose (10 µM) SRB screen; assay type: cell-based, human; settings: renal cancer, 48 h
SK-MEL-28 = test: NCI single dose (10 µM) SRB screen; assay type: cell-based, human; settings: melanoma, 48 h
Staphylococcus aureus = test: Agar well diffusion method
LOX IMVI = test: NCI single dose (10 µM) SRB screen; assay type: cell-based, human; settings: melanoma, 48 h
MDA-MB-468 = test: NCI single dose (10 µM) SRB screen; assay type: cell-based, human; settings: breast cancer, 48 h
IGROV1 = test: NCI single dose (10 µM) SRB screen; assay type: cell-based, human; settings: ovarian cancer, 48 h
SK-MEL-5 = test: NCI single dose (10 µM) SRB screen; assay type: cell-based, human; settings: melanoma, 48 h
SNB-75 = test: NCI single dose (10 µM) SRB screen; assay type: cell-based, human; settings: CNS cancer, 48 h
SF-295 = test: NCI single dose (10 µM) SRB screen; assay type: cell-based, human; settings: CNS cancer, 48 h

HER-2, sequence (P04626 23-1255): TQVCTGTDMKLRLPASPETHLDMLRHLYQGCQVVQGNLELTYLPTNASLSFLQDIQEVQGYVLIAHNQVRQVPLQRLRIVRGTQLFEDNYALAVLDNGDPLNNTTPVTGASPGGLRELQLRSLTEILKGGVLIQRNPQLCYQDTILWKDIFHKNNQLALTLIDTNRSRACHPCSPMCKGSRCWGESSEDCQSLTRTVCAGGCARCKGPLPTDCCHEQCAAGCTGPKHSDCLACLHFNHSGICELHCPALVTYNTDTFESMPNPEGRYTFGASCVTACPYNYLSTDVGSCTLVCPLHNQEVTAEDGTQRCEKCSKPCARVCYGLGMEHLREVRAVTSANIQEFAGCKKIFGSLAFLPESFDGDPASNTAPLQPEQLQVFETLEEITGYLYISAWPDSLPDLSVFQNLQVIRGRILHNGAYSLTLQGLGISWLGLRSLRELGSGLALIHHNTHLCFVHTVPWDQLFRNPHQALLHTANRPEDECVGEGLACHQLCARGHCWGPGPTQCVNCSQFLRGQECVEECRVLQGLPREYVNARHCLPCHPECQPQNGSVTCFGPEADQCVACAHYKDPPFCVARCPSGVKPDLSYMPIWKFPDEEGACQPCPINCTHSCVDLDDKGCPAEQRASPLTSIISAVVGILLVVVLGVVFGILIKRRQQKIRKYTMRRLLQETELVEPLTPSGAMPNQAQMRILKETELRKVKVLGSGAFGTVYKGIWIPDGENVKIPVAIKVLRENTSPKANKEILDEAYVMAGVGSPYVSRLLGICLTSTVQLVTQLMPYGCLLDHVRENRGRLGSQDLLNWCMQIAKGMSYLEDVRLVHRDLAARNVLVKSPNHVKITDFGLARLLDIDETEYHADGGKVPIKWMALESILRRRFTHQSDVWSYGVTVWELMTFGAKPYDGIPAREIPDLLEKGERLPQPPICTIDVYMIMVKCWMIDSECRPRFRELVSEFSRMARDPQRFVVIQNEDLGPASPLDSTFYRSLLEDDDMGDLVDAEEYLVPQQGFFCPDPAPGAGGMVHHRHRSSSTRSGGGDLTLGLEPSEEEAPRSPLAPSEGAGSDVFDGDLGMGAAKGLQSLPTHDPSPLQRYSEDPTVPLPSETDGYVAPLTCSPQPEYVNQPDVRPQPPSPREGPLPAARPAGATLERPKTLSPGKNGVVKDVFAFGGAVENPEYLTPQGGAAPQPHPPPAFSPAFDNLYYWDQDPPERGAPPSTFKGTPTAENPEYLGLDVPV
BTK, sequence (Q06187 whole entry): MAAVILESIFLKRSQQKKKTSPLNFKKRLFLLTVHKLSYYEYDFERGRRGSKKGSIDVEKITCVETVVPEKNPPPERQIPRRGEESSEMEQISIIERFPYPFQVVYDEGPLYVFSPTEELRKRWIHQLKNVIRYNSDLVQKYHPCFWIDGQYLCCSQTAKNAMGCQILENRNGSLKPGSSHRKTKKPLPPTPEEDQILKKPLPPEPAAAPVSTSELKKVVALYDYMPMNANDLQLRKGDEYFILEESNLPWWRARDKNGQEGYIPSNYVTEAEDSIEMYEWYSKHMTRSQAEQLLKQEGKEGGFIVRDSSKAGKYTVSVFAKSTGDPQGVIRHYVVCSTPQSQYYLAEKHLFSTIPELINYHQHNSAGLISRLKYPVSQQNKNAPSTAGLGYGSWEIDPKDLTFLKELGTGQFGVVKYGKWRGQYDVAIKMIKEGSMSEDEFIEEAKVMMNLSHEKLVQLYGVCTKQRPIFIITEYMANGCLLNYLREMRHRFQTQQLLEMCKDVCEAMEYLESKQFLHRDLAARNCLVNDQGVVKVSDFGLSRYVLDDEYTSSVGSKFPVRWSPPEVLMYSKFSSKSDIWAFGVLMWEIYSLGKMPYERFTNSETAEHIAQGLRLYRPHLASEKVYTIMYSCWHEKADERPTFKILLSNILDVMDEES

CS(=O)(=O)CCNCc1ccc(-c2ccc3ncnc(Nc4ccc(OCc5cccc(F)c5)c(Cl)c4)c3c2)o1 [Lapatinib, reference compound]
BTK Potency (BTK): 100.0%
HER-2 Potency (HER-2): 100.0%

CCCC1=C(C(=O)OCC)C(c2cccc(C#N)c2)C(C(=O)OC)=C(C)N1 (racemic) [Compound 2f, (±)-3-Ethyl 5-methyl 4-(3-cyanophenyl)-6-methyl-2-propyl-1,4-dihydropyridine-3,5-dicarboxylate]
GI% SK-MEL-2 (SK-MEL-2): – (Only GI% ≥ 10 are shown)
GI% NCI-H322M (NCI-H322M): – (Only GI% ≥ 10 are shown)
GI% DU-145 (DU-145): – (Only GI% ≥ 10 are shown)
GI% OVCAR-3 (OVCAR-3): – (Only GI% ≥ 10 are shown)
GI% RXF 393 (RXF 393): – (Only GI% ≥ 10 are shown)
GI% M14 (M14): – (Only GI% ≥ 10 are shown)
GI% ACHN (ACHN): – (Only GI% ≥ 10 are shown)
GI% NCI-H522 (NCI-H522): – (Only GI% ≥ 10 are shown)
GI% MDA-MB-435 (MDA-MB-435): – (Only GI% ≥ 10 are shown)
GI% MALME-3M (MALME-3M): – (Only GI% ≥ 10 are shown)
Mean GI% (NCI 60 cancer cell lines): 1%
GI% NCI-H460 (NCI-H460): – (Only GI% ≥ 10 are shown)
GI% T-47D (T-47D): – (Only GI% ≥ 10 are shown)
GI% SW-620 (SW-620): – (Only GI% ≥ 10 are shown)
GI% A549/ATCC (A549/ATCC): – (Only GI% ≥ 10 are shown)
GI% CAKI-1 (CAKI-1): 18%
GI% HT29 (HT29): – (Only GI% ≥ 10 are shown)
GI% UACC-62 (UACC-62): 21%
% activity index, C. albicans (Candida albicans): – (Values below 25 are of limited value and not shown as they refer either to inactive or non-diffusing compounds)
GI% SR (SR): – (Only GI% ≥ 10 are shown)
GI% 786-0 (786-0): – (Only GI% ≥ 10 are shown)
GI% UACC-257 (UACC-257): – (Only GI% ≥ 10 are shown)
GI% A498 (A498): – (Only GI% ≥ 10 are shown)
GI% NCI-H226 (NCI-H226): – (Only GI% ≥ 10 are shown)
GI% HCT-15 (HCT-15): – (Only GI% ≥ 10 are shown)
GI% HOP-92 (HOP-92): – (Only GI% ≥ 10 are shown)
GI% HCT-116 (HCT-116): 11%
GI% SNB-19 (SNB-19): – (Only GI% ≥ 10 are shown)
GI% NCI/ADR-RES (NCI/ADR-RES): – (Only GI% ≥ 10 are shown)
% activity index, P. aeruginosa (Pseudomonas aeruginosa): – (Values below 25 are of limited value and not shown as they refer either to inactive or non-diffusing compounds)
GI% BT-549 (BT-549): – (Only GI% ≥ 10 are shown)
GI% K-562 (K-562): – (Only GI% ≥ 10 are shown)
GI% PC-3 (PC-3): 23%
% activity index, B. subtilis (Bacillus subtilis): – (Values below 25 are of limited value and not shown as they refer either to inactive or non-diffusing compounds)
melting point: 121 to 122 °C
GI% KM12 (KM12): – (Only GI% ≥ 10 are shown)
GI% HS578T (HS578T): – (Only GI% ≥ 10 are shown)
GI% MCF7 (MCF7): – (Only GI% ≥ 10 are shown)
GI% OVCAR-5 (OVCAR-5): – (Only GI% ≥ 10 are shown)
GI% SK-OV-3 (SK-OV-3): – (Only GI% ≥ 10 are shown)
GI% OVCAR-4 (OVCAR-4): – (Only GI% ≥ 10 are shown)
GI% MDA-MB-231 (MDA-MB-231): – (Only GI% ≥ 10 are shown)
GI% NCI-H23 (NCI-H23): – (Only GI% ≥ 10 are shown)
GI% SF-539 (SF-539): – (Only GI% ≥ 10 are shown)
GI% COLO 205 (COLO 205): – (Only GI% ≥ 10 are shown)
GI% HL-60(TB) (HL-60(TB)): 11%
GI% UO-31 (UO-31): 13%
GI% CCRF-CEM (CCRF-CEM): – (Only GI% ≥ 10 are shown)
GI% SN12C (SN12C): – (Only GI% ≥ 10 are shown)
GI% U251 (U251): – (Only GI% ≥ 10 are shown)
GI% EKVX (EKVX): – (Only GI% ≥ 10 are shown)
GI% MOLT-4 (MOLT-4): 14%
GI% RPMI-8226 (RPMI-8226): 12%
GI% OVCAR-8 (OVCAR-8): – (Only GI% ≥ 10 are shown)
GI% SF-268 (SF-268): – (Only GI% ≥ 10 are shown)
% activity index, A. flavus (Aspergillus flavus): – (Values below 25 are of limited value and not shown as they refer either to inactive or non-diffusing compounds)
% activity index, E. coli (Escherichia coli): – (Values below 25 are of limited value and not shown as they refer either to inactive or non-diffusing compounds)
GI% HOP-62 (HOP-62): – (Only GI% ≥ 10 are shown)
GI% HCC-2998 (HCC-2998): – (Only GI% ≥ 10 are shown)
GI% TK-10 (TK-10): – (Only GI% ≥ 10 are shown)
GI% SK-MEL-28 (SK-MEL-28): – (Only GI% ≥ 10 are shown)
zone of inhibition at 1000 µg/mL (Staphylococcus aureus; Staphylococcus aureus, 24 h, read-out: Diameter of inhibition zone, S. aureus): 6 mm
% activity index, S. aureus (Staphylococcus aureus; relative to ciprofloxacin): 25%
GI% LOX IMVI (LOX IMVI): – (Only GI% ≥ 10 are shown)
GI% MDA-MB-468 (MDA-MB-468): – (Only GI% ≥ 10 are shown)
GI% IGROV1 (IGROV1): – (Only GI% ≥ 10 are shown)
GI% SK-MEL-5 (SK-MEL-5): – (Only GI% ≥ 10 are shown)
GI% SNB-75 (SNB-75): 37%
GI% SF-295 (SF-295): – (Only GI% ≥ 10 are shown)
